According to patent US8669256B2, “Substituted thieno[2,3-b]pyrazine compounds as modulators of B-Raf kinase activity” (Merck Sharp & Dohme B.V., priority 2010, dated 2014):

These compounds were tested against T1, GST-tagged human recombinant active B-Raf (Δ1-415) (Homo sapiens, UniProt P15056) (assay: B-Raf kinase activity, IMAP coupled assay (B-Raf/MEK1/ERK2, fluorescence polarization)). Conditions: not given.
T1 construct: GST; purchased Upstate/Millipore
T1 sequence (P15056 416-766, stated change not applied): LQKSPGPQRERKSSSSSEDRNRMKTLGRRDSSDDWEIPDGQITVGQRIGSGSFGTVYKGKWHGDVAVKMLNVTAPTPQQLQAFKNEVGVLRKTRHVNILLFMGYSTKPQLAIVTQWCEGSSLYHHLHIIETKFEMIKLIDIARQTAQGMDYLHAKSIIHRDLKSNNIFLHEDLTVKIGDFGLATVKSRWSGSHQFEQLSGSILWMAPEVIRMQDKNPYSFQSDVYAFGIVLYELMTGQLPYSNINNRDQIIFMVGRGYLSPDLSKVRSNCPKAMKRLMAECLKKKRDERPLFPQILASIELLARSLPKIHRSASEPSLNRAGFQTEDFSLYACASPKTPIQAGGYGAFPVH
Assay type: biochemical
Excerpt: (§1) In another assay the B-Raf kinase activity can be determined by using an IMAP assay (Immobilized Metal Assay for Phosphochemicals-based coupled assay). IMAP is a homogeneous fluorescence polarization (FP) assay based on affinity capture of phosphorylated peptide substrates. IMAP uses fluorescein-labeled peptide substrates that, upon phosphorylation by a protein kinase, bind to so called IMAP nanoparticles, which are derivatized with trivalent metal complexes. Such binding causes a change in the rate of the molecular motion of the peptide, and results in an increase in the FP value observed for the fluorescein label attached to the substrate peptide. In such an assay, B-Raf phosphorylates unactive MEK1. The phosphorylated MEK1 is capable of phosphorylating ERK2, which subsequently phosphorylates the fluorescein-labeled peptide substrate.
Determination of B-Raf Kinase Activity using an IMAP Assay
as §1, with “Inhibition of” for “In another assay the”, “was measured” for “can be determined by”, “Immobilized” for “IMAP assay (Immobilized”, “assay (IMAP).” for “assay).”, “this” for “such an”
Enzymes, substrate and ATP were diluted at all steps in Kinase Reaction buffer (10 mM Tris-HCl, 10 mM MgCl2, 0.01% Tween-20, 0.05% NaN3 pH 7.2, 1 mM DTT). The final volume at the kinase reaction step of the assay in the 384-well plate was 20 μl. The concentrations within brackets are final concentrations in the assay. B-Raf (GST-tagged human recombinant active B-Raf (Δ1-415), Upstate/Millipore; 0.2 U/ml) was pre-incubated with compounds or DMSO (1% final concentration) for 60 minutes at room temperature in the dark. Thereafter, MEK 1 (GST-tagged human recombinant unactive MEK1 (full-length); 64 ng/ml), ERK2 (GST-tagged human recombinant unactive ERK2 (full-length); 600 ng/ml), peptide substrate (Erktide, Molecular Devices; 50 nM) and ATP (50 μM) were added to the wells and the mix was incubated for another 60 minutes at 30° C. in the dark. Then, IMAP progressive binding buffer (75% 1× buffer A, 25% 1× buffer B, 1:900 Progressive Binding Reagent; Molecular Devices) was added followed by an incubation step of 60 minutes at room temperature in the dark. Finally, the FP signal was read on an Envision Multilabel reader (Perkin Elmer).
In the case of `Cc1ccc(NC(=O)c2cccc(C(C)(C)C#N)c2)cc1/N=C(\C#N)c1cc2nccnc2s1` [Example 56, (E)-N-(5-(3-(2-cyanopropan-2-yl)benzamido)-2-methylphenyl)thieno[2,3-b]pyrazine-6-carbimidoyl cyanide], the IC50 is reported as < 100 nM.

Same assay, conditions: bounds also given as pIC50 (>6, >7, >8); 60 min pre-incubation with compound, ATP 50 μM; read-out: IC50, B-Raf IMAP assay
In the case of `Cc1ccc(NC(=O)c2cccc(C(C)(C)C#N)c2)cc1NC(=O)c1cc2nc(Cl)cnc2s1` [Example 12, 2-chloro-N-(5-(3-(2-cyanopropan-2-yl)benzamido)-2-methylphenyl)thieno[2,3-b]pyrazine-6-carboxamide], the IC50 is reported as < 100 nM.
In the case of `Cc1ccc(NC(=O)c2cccc(C(C)(C)C#N)c2)cc1NC(=O)c1cc2nc(-c3cncnc3)cnc2s1` [Example 22, N-(5-(3-(2-cyanopropan-2-yl)benzamido)-2-methylphenyl)-2-(pyrimidin-5-yl)thieno[2,3-b]pyrazine-6-carboxamide], the IC50 is reported as < 10 nM.
For `Cc1ccc(NC(=O)c2cccc(C(C)(C)C#N)c2)cc1NC(=O)c1cc2nc(-c3cnc(N(C)C)nc3)cnc2s1` [Example 23, N-(5-(3-(2-cyanopropan-2-yl)benzamido)-2-methylphenyl)-2-(2-(dimethylamino)pyrimidin-5-yl)thieno[2,3-b]pyrazine-6-carboxamide], the IC50 was < 100 nM.
`Cc1ccc(NC(=O)c2ccnc(N(C)C)c2)cc1NC(=O)c1cc2nccnc2s1` [Example 25, N-(5-(2-(dimethylamino)isonicotinamido)-2-methylphenyl)thieno[2,3-b]pyrazine-6-carboxamide] was tested, and the IC50 was < 100 nM.
With `Cc1ccc(NC(=O)c2ccc(CN3CCN(C)CC3)c(C(F)(F)F)c2)cc1NC(=O)c1cc2nccnc2s1` [Example 33, N-(2-methyl-5-(4-((4-methylpiperazin-1-yl)methyl)-3-(trifluoromethyl)benzamido)phenyl)thieno[2,3-b]pyrazine-6-carboxamide] the IC50 was < 100 nM.
In the case of `Cc1ccc(NC(=O)c2cccc(-n3cccn3)c2)cc1NC(=O)c1cc2nccnc2s1` [Example 34, N-(5-(3-(1H-pyrazol-1-yl)benzamido)-2-methylphenyl)thieno[2,3-b]pyrazine-6-carboxamide], the IC50 is reported as < 100 nM.
For `Cc1ccc(NC(=O)c2cccc(C(C)(C)C#N)c2)cc1NCc1cc2nccnc2s1` [Example 47, 3-(2-cyanopropan-2-yl)-N-(4-methyl-3-(thieno[2,3-b]pyrazin-6-ylmethylamino)phenyl)benzamide], the IC50 was < 100 nM.
With `Cc1ccc(C(=O)Nc2cccc(C(F)(F)F)c2)cc1NC(=O)c1cc2nccnc2s1` [Example 48, N-(2-methyl-5-(3-(trifluoromethyl)phenylcarbamoyl)phenyl)-thieno[2,3-b]pyrazine-6-carboxamide] the IC50 was < 100 nM.
With `CC(C)(C#N)c1cccc(C(=O)Nc2ccc(C#N)c(NC(=O)c3cc4nccnc4s3)c2)c1` [Example 52, N-(2-cyano-5-(3-(2-cyanopropan-2-yl)benzamido)phenyl)thieno[2,3-b]pyrazine-6-carboxamide] the IC50 was < 100 nM.
In the case of `Cc1ccc(NC(=O)c2cccc(-c3ccsc3)c2)cc1NC(=O)c1cc2nccnc2s1` [Example 57, N-(2-methyl-5-(3-(thiophen-3-yl)benzamido)phenyl)thieno[2,3-b]pyrazine-6-carboxamide], the IC50 is reported as < 100 nM.
With `Cc1ccc(NC(=O)c2cccc(C(C)(C)C#N)c2)cc1NC(=O)c1cc2[nH]c(=O)cnc2s1` [Example 58, N-(5-(3-(2-cyanopropan-2-yl)benzamido)-2-methylphenyl)-2-oxo-1,2-dihydrothieno[2,3-b]pyrazine-6-carboxamide] the IC50 was < 100 nM.
With `Cc1ccc(NC(=O)c2cccc(C(C)(C)C#N)c2)cc1NC(=O)c1cc2ncc(N(C)C)nc2s1` [Example 60, N-(5-(3-(2-cyanopropan-2-yl)benzamido)-2-methylphenyl)-3-(dimethylamino)thieno[2,3-b]pyrazine-6-carboxamide] the IC50 was < 10 nM.
`CCOc1cnc2cc(C(=O)Nc3cc(NC(=O)c4cccc(C(C)(C)C#N)c4)ccc3C)sc2n1` [Example 71, N-(5-(3-(2-cyanopropan-2-yl)benzamido)-2-methylphenyl)-3-ethoxythieno[2,3-b]pyrazine-6-carboxamide] was tested, and the IC50 was < 100 nM.
